PubChem BioAssay AID489032 (Sanford-Burnham Center for Chemical Genomics, 2010)
pEC50: −log10 of the molar value. Activity calls are given as the source filed them. How the calls were made is not given here.

Test system: UPR adaptive arm reporter cells, luciferase luminescence
Assay: adaptive unfolded protein response reporter activation – cell-based, luciferase luminescence, dose response (AID 489032)

`CCOc1ccccc1CNC(=O)C1CCN(c2nnc(C)c3c(C)n(-c4ccc(C)cc4)nc23)CC1` was tested, and the EC50 was > 80 µM (inactive).
`COc1ccccc1CCNC(=O)C1CCN(c2nnc(C)c3c(C)n(-c4ccc(C)cc4)nc23)CC1` showed a pEC50 of 4.75.
For `Oc1cccc(-c2nc3c4c(ncn3n2)-c2ccccc2CC42CCCC2)c1`, the EC50 was > 80 µM (inactive).
`CCOc1ccc(S(=O)(=O)Nc2cccc(C(=O)NCC3(N4CCCCC4)CCCCC3)c2)cc1` gave a pEC50 of 4.82.
With `O=C(/C(=N/N=C/c1ccc(O)c(O)c1)c1ccccc1)c1ccccc1` the EC50 was > 80 µM (inactive).
With `Cc1ccc(-c2nc(N/N=C/c3cccc([N+](=O)[O-])c3)c3ccccc3n2)cc1` the EC50 was > 80 µM (inactive).
`CCOc1cc2c3c(c1)C(C)=CC(C)(C)N3C(=O)C2=O` was tested, and the EC50 was 54.6 µM (inactive).
Molecule `O=C(NCc1ccccc1Br)c1cccc2c1C(=O)c1ccc(-c3ccc(OC(F)(F)F)cc3)cc1S2(=O)=O` has a pEC50 of 4.72.
For `CCc1cc2c(=O)c(-c3cnn(-c4ccccc4)c3)c(C)oc2cc1OCC(=O)Nc1cccc(C)c1`, the EC50 was > 80 µM (inactive).
In the case of `COc1ccc(-c2csc(NC(=S)NC(=O)/C=C/c3ccco3)n2)cc1Br`, the EC50 was 41.9 µM (inactive).
In the case of `COc1ccc(-n2c(C)cc(C(=O)CCl)c2C)cc1`, the EC50 was > 80 µM (inactive).
In the case of `CCOC(=O)C1=C(C)N=C2c3ccccc3C(=O)C2C1c1ccc(C)cc1` (centres undefined), the EC50 was > 80 µM (inactive).
For `CC(C)=CCCC1(C)C=Cc2c(ccc3c2[nH]c2cc(O)c(C)cc23)O1` (centres undefined), the EC50 was > 80 µM (inactive).
`O=C(Nc1nc2ccccc2s1)c1cc2c(s1)-c1ccccc1OC2` was tested, and the EC50 was 44.9 µM (inactive).
`COC(=O)c1cc([N+](=O)[O-])c(-n2ccnc2)c([N+](=O)[O-])c1` was tested, and the EC50 was > 80 µM (inactive).
Work on `Nc1c(C(=O)Nc2ccc(S(=O)(=O)N3CCCC3)cc2)sc2nc3ccc(OC(F)(F)F)cc3cc12` yielded a pEC50 of 4.92.
For `Cc1ccc2c(c1)C(c1ccc([N+](=O)[O-])cc1)=NNC(c1ccc(Br)cc1)=N2`, the EC50 was > 80 µM (inactive).
`Cc1cccc(N2CCN(C(=S)Nc3ccc4nc(N5CCN(C)CC5)cc(C)c4c3)CC2C)c1` (centres undefined) was tested, and the EC50 was > 80 µM (inactive).
In the case of `CCOC(=O)c1cc(NC(=O)c2ccc(Cl)cc2)c(=O)n2c1oc1ccc(Cl)cc12`, the EC50 was > 80 µM (inactive).
With `Oc1cccc2ccc(/C=C/c3ccc(Br)s3)nc12` the EC50 was > 80 µM (inactive).
With `CC(C)(C)c1csc(NC(=O)c2ccc(Cl)s2)n1` the EC50 was > 80 µM (inactive).
For `Cc1ccc2nc(/C(C#N)=C/c3ccc(O)c(O)c3)[nH]c2c1`, the EC50 was > 80 µM (inactive).
In the case of `CCOc1ccc(-n2c(C)cc(C(=O)CCl)c2C)cc1`, the pEC50 was 5.05.
`Cc1ccc2nsnc2c1NC(=O)c1ccc(-c2cc(Cl)ccc2Cl)o1` was tested, and the EC50 was > 80 µM (inactive).
`COC(=O)c1ccc(COc2ccccc2/C=C(\C#N)C(=O)Nc2c(C)cccc2C)cc1` was tested, and the EC50 was > 80 µM (inactive).
`O=[N+]([O-])c1ccc(Cl)c(-c2ccc(/C=N/c3c(-c4ccco4)nc4ccccn34)o2)c1` was tested, and the EC50 was 39.3 µM (inactive).
`O=c1cc(CN2CCN(c3ccc(F)cc3)CC2)c2cc3c(cc2o1)CCCC3` was tested, and the pEC50 was 4.75.
`C=CCn1c(O)c(C2=c3ccccc3=NC2=O)sc1=Nc1ccc(O)cc1` was tested, and the EC50 was 38.7 µM (inactive).
For `CCOc1cc(/C=N/N=C(\N)c2nonc2N)cc(Br)c1OCc1cccc2ccccc12`, the EC50 was > 80 µM (inactive).
For `COc1cc([N+](=O)[O-])cc(/C=N/NC(=O)c2ccc(NC(=O)c3ccc(C)cc3)cc2)c1O`, the EC50 was > 80 µM (inactive).
For `Cc1ccc(Nc2nc(-c3c(C)nc4ccccn34)cs2)cc1`, the EC50 was > 80 µM (inactive).
`CCCOC(=O)c1cccc(Nc2nc(-c3cccnc3)nc3ccccc23)c1` was tested, and the EC50 was > 80 µM (inactive).
For `O=[N+]([O-])c1ccc(N/N=C/c2cccc(O)c2O)c(S(=O)(=O)N2CCOCC2)c1`, the EC50 was 21.2 µM (inactive).
`COc1ccc(C(CCNCc2ccc(F)cc2)c2ccc(F)cc2)cc1` (centres undefined) showed a pEC50 of 5.04.
In the case of `NC(=O)CC(NC(=O)Cc1cccc2ccccc12)c1ccc(NCCOc2ccccc2)c([N+](=O)[O-])c1` (centres undefined), the EC50 was > 80 µM (inactive).
For `Cc1ccc(C(=O)N2N=C(c3ccc(Br)cc3)CC2c2ccccc2O)cc1` (centres undefined), the EC50 was > 80 µM (inactive).
In the case of `COc1ccc(NC(=O)C(=O)N/N=C\c2ccc(CNC(=O)C(=O)Nc3ccc(C)c(C)c3)o2)c(OC)c1`, the EC50 was > 80 µM (inactive).
In the case of `Cc1cc(C)c2c(CCl)cc(=O)oc2c1`, the EC50 was > 80 µM (inactive).
With `O=C1Nc2ccccc2/C1=C/c1ccc([N+](=O)[O-])cc1` the EC50 was > 80 µM (inactive).
For `CCOc1ccc(/C=C/C(O)=C2/C(=O)NC3(C)CC2c2ccccc2O3)cc1OC` (centres undefined), the EC50 was > 80 µM (inactive).
For `CC1=Nc2ccccc2/C1=C\c1sc(Nc2ccc(C)cc2)nc1O`, the EC50 was > 80 µM (inactive).
In the case of `NS(=O)(=O)c1ccc(N/N=C/c2cn(-c3ccccc3)nc2-c2cccs2)c([N+](=O)[O-])c1`, the EC50 was > 80 µM (inactive).
With `CCNC(=O)c1c(NC(=O)c2cc(-c3cc(C)ccc3O)n[nH]2)sc2c1CCCC2` the EC50 was > 80 µM (inactive).
In the case of `COc1cc2c(cc1NC(=S)NC(=O)/C=C/c1ccco1)oc1ccccc12`, the EC50 was 21.3 µM (inactive).
With `CCOC(=O)c1c2ccc(OCC(=O)N/N=C/c3ccc(C)cc3)cc2n2ccccc12` the EC50 was > 80 µM (inactive).
For `CC1=C(CC/C(C)=N/NC(N)=S)C(C)(C)CCC1`, the EC50 was 29.3 µM (inactive).
In the case of `Cc1ccc(-n2nc3c(N4CCC(C(=O)NCCc5ccccc5C)CC4)nnc(C)c3c2C)cc1`, the EC50 was > 80 µM (inactive).
`COc1ccc(/C=c2\s/c(=C(/C#N)C(=O)NCc3ccco3)n(-c3ccccc3)c2=O)cc1` was tested, and the EC50 was > 80 µM (inactive).
In the case of `Cc1ccc(NC(=O)c2nc[nH]c2C(=O)NCCCNC(=O)c2[nH]cnc2C(=O)Nc2ccc(C)cc2)cc1`, the EC50 was > 80 µM (inactive).
Work on `Cc1cc(C)cc(NC(=O)/C(C#N)=C/c2cn(CC(=O)NCc3ccco3)c3ccccc23)c1` yielded a pEC50 of 5.04.
With `Cc1cc(C)c2sc(N(CCCN(C)C)C(=O)c3ccc(S(=O)(=O)N4CCCc5ccccc54)cc3)nc2c1` the EC50 was > 80 µM (inactive).
In the case of `COc1ccc2cc(C)c3nnc(SCC(=O)Nc4nc(-c5ccc(F)cc5)cs4)n3c2c1`, the EC50 was 23.7 µM (inactive).
With `Cc1ccc2nc(NC(=O)c3ccc(-c4nc5ccccc5s4)s3)sc2c1` the EC50 was > 80 µM (inactive).
In the case of `CCOc1cc(/C=N/N=C(/N)c2nonc2N)cc(Br)c1OCc1ccc(Cl)cc1`, the EC50 was > 80 µM (inactive).
For `O=C1c2ccccc2C(=O)N1/N=C/c1ccc(O)c(O)c1`, the EC50 was > 80 µM (inactive).
With `CN(C)CCCN(C(=O)c1cc(-c2cccs2)nc2ccccc12)c1nc2ccc(F)cc2s1` the EC50 was > 80 µM (inactive).
In the case of `OC(CNCC1CCCO1)Cn1c2ccc(Br)cc2c2cc(Br)ccc21` (centres undefined), the EC50 was > 80 µM (inactive).
In the case of `COc1cc([C@@H]2c3cc4c(cc3[C@@H](O)[C@H]3COC(=O)[C@H]23)OCO4)cc(OC)c1O[Si](C)(C)C(C)(C)C`, the EC50 was > 80 µM (inactive).
With `Cc1ccc(C(=O)C(C(=O)/C=C/c2ccccc2)=C2SCCCS2)cc1` the EC50 was > 80 µM (inactive).
For `CC(NCC(O)COCCC12CC3CC(CC(C3)C1)C2)c1ccccc1` (centres undefined), the EC50 was > 80 µM (inactive).
With `N#CCC(=O)N/N=C/c1cn(Cc2cccc3ccccc23)c2ccccc12` the EC50 was > 80 µM (inactive).
In the case of `C=CCN=C1S/C(=C/c2cccc([N+](=O)[O-])c2)C(=O)N1CC=C`, the EC50 was > 80 µM (inactive).
Molecule `O=C(Nc1cccc(-c2nc3cccnc3s2)c1)C1c2ccccc2Oc2ccccc21` has a pEC50 of 5.33.
In the case of `Cc1ccc(NS(=O)(=O)c2cc([N+](=O)[O-])ccc2N/N=C/c2sc(N3CCOCC3)nc2-c2ccccc2)c(C)c1`, the EC50 was > 80 µM (inactive).
`CCC(Sc1nnc2c3ccccc3n(CC)c2n1)C(=O)Nc1sc2c(c1C#N)CCCC2` (centres undefined) showed a pEC50 of 4.78.
`Cc1nc2cc(NC(=O)CSc3nc4c(C)cccc4cc3C#N)ccc2s1` was tested, and the EC50 was > 80 µM (inactive).
With `COC(=O)c1c(NC(=O)c2nc3ccccc3s2)sc2c1CC(C)(C)NC2(C)C` the EC50 was > 80 µM (inactive).
`COc1ccc(Cn2c(SCc3cc(C)ccc3C)nc3cc(OC)c(OC)cc3c2=N)cc1` was tested, and the EC50 was > 80 µM (inactive).
With `COc1ccc2c(c1)[nH]c1c(=O)n(/N=C/C3C(C)C=C(C)CC3C)c(=O)[nH]c12` (centres undefined) the EC50 was 65.8 µM (inactive).
For `CCOC(=O)C(=CNc1nc(-c2ccccc2)c(C(=O)Nc2ccc(-c3ccccc3)cc2)s1)C(=O)OCC`, the EC50 was 24.7 µM (inactive).
In the case of `CN1C(=O)/C(=C/c2ccc(C(=O)NC3CCCC3)cc2)Oc2ccccc21`, the EC50 was > 80 µM (inactive).
In the case of `O=C(NCc1ccccc1Cl)c1cccc2c1C(=O)c1ccc(-c3ccc(OC(F)(F)F)cc3)cc1S2(=O)=O`, the EC50 was > 80 µM (inactive).
With `Cc1cccnc1Nc1nc(-c2ccc(O)c(O)c2)cs1` the EC50 was > 80 µM (inactive).
`COc1ccc(CCn2c(=S)[nH]c3cc(C(=O)NCc4ccco4)ccc3c2=O)cc1OC` was tested, and the EC50 was > 80 µM (inactive).
In the case of `O=C(Oc1ccccc1/C=C\C(=O)c1cc2ccccc2o1)c1cccc(F)c1`, the EC50 was > 80 µM (inactive).
`CCCCCn1c(N)c(-c2nc3ccccc3o2)c2c([N+](=O)[O-])nn(CC)c(=O)c21` was tested, and the EC50 was > 80 µM (inactive).
In the case of `CC(=O)c1cccc(N=Cc2c(O)c3ccccc3oc2=O)c1`, the EC50 was > 80 µM (inactive).
`COc1ccc(C(=O)O/N=C/c2c(C(F)(F)F)nn(C)c2SCc2ccccc2Cl)cc1` was tested, and the EC50 was > 80 µM (inactive).
`FC(F)(F)c1nc2ccccc2n2c(-c3ccc(Cl)cc3)nnc12` was tested, and the EC50 was > 80 µM (inactive).
`COc1cc(SC#N)ccc1N=Cc1c(C)[nH]n(-c2ccc(Cl)cc2)c1=O` was tested, and the EC50 was > 80 µM (inactive).
For `Cc1ccc(Cn2c(C(C)Nc3nc(-c4ccc(F)cc4)cs3)nc3cc(Cl)c(Cl)cc32)cc1` (centres undefined), the EC50 was > 80 µM (inactive).
In the case of `OCCNc1nc(Nc2ccc(Cl)c(Cl)c2)nc2ccccc12`, the EC50 was > 80 µM (inactive).
`NC1=NC[C@@H](CC2CCCCC2)N1CCc1cc(C(F)(F)F)cc(C(F)(F)F)c1` was tested, and the EC50 was > 80 µM (inactive).
In the case of `Oc1ccc(/C=N/Nc2cc(N3CCOCC3)nc(N3CCOCC3)n2)cc1O`, the EC50 was > 80 µM (inactive).
For `CCC1CCc2c(sc3nc(SCC(=O)NCc4ccco4)n(-c4ccccc4)c(=O)c23)C1` (centres undefined), the EC50 was > 80 µM (inactive).
With `COc1cc(NC(=O)c2cncc(-c3ccc(C#N)cc3)c2)cc(C(=O)Nc2cccc(C(F)(F)F)c2)c1` the EC50 was 46.3 µM (inactive).
With `O=C(Nc1ccc(Cl)cc1)Nc1ccccc1Sc1ncc([N+](=O)[O-])s1` the EC50 was > 80 µM (inactive).
For `COc1cccc(-n2c(SCC(=O)N3CCc4ccccc43)nnc2-c2c[nH]c3ccccc23)c1`, the EC50 was > 80 µM (inactive).
`CCOC(=O)C1=C(C)N=C2SC(C(=O)OC)=CC(=O)N2C1c1ccc(F)cc1` (centres undefined) was tested, and the EC50 was 32.6 µM (inactive).
